How the values were obtained:
Type in all cases: cell-based
LNCaP cells [1] = assay: Cell proliferation assay (CellTiter-Glo, total cellular ATP); settings: charcoal-stripped serum, 0.1 nM R1881, 7 days; FIG. 1
Protocol: Androgen-dependent prostate cancer cell line, LNCaP, were grown in RPMI 1640 culture medium supplemented with 10% charcoal-stripped fetal bovine serum for 24 hours in 96-well tissue culture plates at a density of 1,000 cells per well. Cells were treated with various concentrations of compounds A or B alone and in combination in presence of synthetic androgen (R1881, Sigma-Aldrich, St. Louis, Mo.). After 7 days, total cellular ATP was measured using the CellTiter-Glo Luminescent Cell Viability Assay (Promega, Madison, Wis.) on an EnVision plate reader. Background counts from wells containing no cells were subtracted and the data is presented as a percentage of the DMSO-treated control cells.

LNCaP cells [2] = assay: Luminescent caspase 3/7 assay in LNCaP cells; settings: five days, FIG. 3A
Protocol: (§1) Tumor cells were seeded in 96-well white tissue culture plates in 100 μL growth media (media with 10% FBS) or CSS media (media with 10% charcoal stripped fetal bovine serum). LNCaP cells were seeded at a density of 1,000 cells per well, whereas, VCaP cells were seeded at 7,500 cells per well. Approximately 24 hr after plating, duplicate or triplicate plates of cells were treated with indicated compounds for both luminescent caspase-3/7 and CTG readings. At the end of the 5 days of incubations, half of the plates were lysed and caspase-3/7 activity was measured using the Caspase-Glo® 3/7 Assay (Promega) according to the manufacturer's protocol. Briefly, Caspase-Glo reagent was added to each plate, incubated for at least 45 minutes, and luminescent signal was read on the EnVision Multilabel Plate Reader with a 0.1 sec integration time. The remaining plates were lysed and ATP levels were measured using the CTG assay. The caspase-3/7 signal was normalized to the ATP signal. The normalized values were expressed as a percentage of the control wells.

VCaP cells = assay: Luminescent caspase 3/7 assay in VCaP cells; settings: 5 days, FIG. 3B
Protocol: as §1

[3] = test system: cell signaling in LNCaP cells; assay: Effect on cell signaling (immunoblot assay); settings: 0.1 nM R1881, 6 hour, FIG. 2
Protocol: LNCaP cells were grown in RPMI 1640 culture medium supplemented with 10% charcoal-stripped fetal bovine serum for 48 hours in 6-well tissue culture plates at a density of 500,000 cells per well. Cells were treated with the indicated compounds for six hours, washed with PBS, and whole cell lysates were prepared in RIPA buffer (Teknova, Hollister, Calif.). Cell lysates were clarified by centrifugation at 20,000 relative centrifugal force, 4° C., and protein was quantified using the BCA Protein Assay Kit (Pierce, Rockford, Ill.). Equal amounts of protein lysates were separated by SDS-PAGE using a 4-12% Bis-Tris polyacrylamide gel (Life Technologies) and transferred to a nitrocellulose membrane and incubated with antibodies against total and phospho-AKT, phospho-PRAS40, total and phospho-S6, androgen receptor, and FKBP5. Following incubation with primary antibody, blots were washed and incubated with IRDye-800 anti-mouse or IRDye-680 anti-rabbit antibodies for 1 h. Following thorough washing, blots were analyzed using an infrared imaging system (LI-COR).

Row | SMILES | LNCaP cell growth (anti-proliferative effect) (LNCaP cells [1]) | caspase 3/7 activity induction in LNCaP cells (LNCaP cells [2]; Compound A 10 uM, Compound B 1 uM, or both, medium not specified) | caspase 3/7 activity induction in LNCaP cells, media containing charcoal stripped serum (LNCaP cells [2]; CSS media) | caspase 3/7 activity induction in LNCaP cells, growth media (LNCaP cells [2]; growth media (10% FBS)) | caspase 3/7 activity induction in VCaP cells, CSS media (VCaP cells; Compound A 10 uM, CSS media) | caspase 3/7 activity induction in VCaP cells, growth media (VCaP cells; Compound A 10 uM, growth media) | phospho-AKT (T308) ([3]; Compound B 100 or 300 nM alone or with compound A 3 uM) | androgen receptor level ([3]; Compound B 100 or 300 nM) | androgen receptor target gene (FKBP5) expression ([3]; Compound B 100 or 300 nM) | phospho-PRAS40 (AKT downstream substrate) ([3]; Compound B 100 or 300 nM) | phospho-S6 (AKT downstream substrate) ([3]; Compound B 100 or 300 nM) | caspase 3/7 activity induction in VCaP cells, media containing charcoal stripped serum (in words) (VCaP cells; Compound B 1 uM, CSS media) | caspase 3/7 activity induction in VCaP cells, growth media (in words) (VCaP cells; Compound B 1 uM, growth media)
1 | CNC(=O)c1ccc(N2C(=S)N(c3ccc(C#N)c(C(F)(F)F)c3)C(=O)C2(C)C)cc1F [Compound A, 4-(3-(4-Cyano-3-(trifluoromethyl)phenyl)-5,5-dimethyl-4-oxo-2-thioxoimidazolidin-1-yl)-2-fluoro-N-methylbenzamide, reference compound] | inhibited | no induction | strong induction | strong induction | 11 fold | 2 fold |  |  |  |  |  |  | 
2 | Cn1ncc(Cl)c1-c1cc(C(=O)N[C@H](CN)Cc2cccc(F)c2)sc1Cl [Compound B, N-{(1S)-2-amino-1-[(3-fluorophenyl)methyl]ethyl}-5-chloro-4-(4-chloro-1-methyl-1H-pyrazol-5-yl)-2-thiophenecarboxamide] | inhibited |  |  |  |  |  | increased | no significant effect | no significant effect | inhibited | inhibited | not | strong induction
